Target: T1, human GLP-1R receptor (Homo sapiens, UniProt P43220)
T1 construct: expressed in transfected cells
Assay: GLP-1R low expression cell assay (cAMP TR-FRET, CHO-K1_hGLP-1Rlow_clone10 cells)
Type: cell-based
Settings: for EC50: cAMP TR-FRET, 30 min at 25° C.
Outline: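 CHO-K1 cells stably expressing low surface human GLP-1R (clone10), 1,000 cells/well, exposed to 10-point 3-fold compound dilutions for 30 min at 25 °C. cAMP measured by TR-FRET (Eu-cAMP tracer/ULight-anti-cAMP, 15 min). EC50 from Hill fit of duplicate percent activation relative to a parallel GLP-1 control agonist.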

[1] = maximum activation relative to control GLP-1 peptide agonist

T1 sequence (P43220 24-463): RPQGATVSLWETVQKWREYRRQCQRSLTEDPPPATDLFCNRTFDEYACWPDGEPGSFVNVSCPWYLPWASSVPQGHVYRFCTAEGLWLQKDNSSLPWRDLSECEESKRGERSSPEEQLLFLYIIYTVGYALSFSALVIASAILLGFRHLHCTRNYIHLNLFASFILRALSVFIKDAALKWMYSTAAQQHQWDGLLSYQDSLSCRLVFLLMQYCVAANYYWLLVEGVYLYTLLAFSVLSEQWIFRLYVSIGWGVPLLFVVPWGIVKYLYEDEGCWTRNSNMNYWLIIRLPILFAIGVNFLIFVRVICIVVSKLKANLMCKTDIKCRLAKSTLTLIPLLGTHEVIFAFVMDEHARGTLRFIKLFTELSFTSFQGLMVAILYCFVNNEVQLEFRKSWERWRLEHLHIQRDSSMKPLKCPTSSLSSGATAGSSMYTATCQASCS

SMILES	EC50 [nM]	Emax [1] [%]	GLP-1R Low Expression Cell Assay Emax (%) [1]
Cn1c(CN2CCC(c3cccc(COc4ccc(Cl)cc4F)n3)C2)nc2c(OC(F)F)cc(C(=O)O)cc21 (stereo not drawn) [Compound 362, 2-((3-(6-((4-Chloro-2-fluorophenoxy)methyl)pyridin-2-yl)pyrrolidin-1-yl)methyl)-4-(difluoromethoxy)-1-methyl-1H-benzo[d]imidazole-6-carboxylic acid]	> 1000	50 to 85	
Cn1c(CN2CCC(c3ccc(Cl)c(OCc4ccc(Cl)cc4F)c3)CC2)nc2c(OC(F)F)cc(C(=O)O)cc21 [Compound 194, 2-((4-(4-Chloro-3-((4-chloro-2-fluorobenzyl)oxy)phenyl)piperidin-1-yl)methyl)-4-(difluoromethoxy)-1-methyl-1H-benzo[d]imidazole-6-carboxylic acid]	100 to 1000	> 85	
CC(Oc1ccccc1C1CCN(Cc2nc3c(OC(F)F)cc(C(=O)O)cc3n2C)CC1)c1ccc(C#N)cc1F (single isomer, unassigned) [Compound 174]	> 1000	< 25	
N#Cc1ccc(COc2cccc(C3CCN(Cc4nc5cnc(C(=O)O)cc5n4C[C@@H]4CCO4)CC3)n2)c(F)c1 [Compound 378, (S)-2-((4-(6-((4-Cyano-2-fluorobenzyl)oxy)pyridin-2-yl)piperidin-1-yl)methyl)-1-(oxetan-2-ylmethyl)-1H-imidazo[4,5-c]pyridine-6-carboxylic acid]	10 to 100	> 85	
Cn1c(CN2CCC(c3cccc(OCc4ccc(C5COC5)cc4F)n3)CC2)nc2c(OC(F)F)cc(C(=O)O)cc21 [Compound 141, 4-(Difluoromethoxy)-2-((4-(6-((2-fluoro-4-(oxetan-3-yl)benzyl)oxy)pyridin-2-yl)piperidin-1-yl)methyl)-1-methyl-1H-benzo[d]imidazole-6-carboxylic acid]	10 to 100	> 85	
O=C(O)c1ccc2nc(CN3CCC(c4cccc(OCc5ccc(Cl)cc5F)n4)CC3)[nH]c2c1OC(F)F [Compound 210, 2-((4-(6-((4-Chloro-2-fluorobenzyl)oxy)pyridin-2-yl)piperidin-1-yl)methyl)-7-(difluoromethoxy)-1H-benzo[d]imidazole-6-carboxylic acid]	> 1000	25 to 50	
Cn1c(CN2CCC(Oc3cccc(COc4ccc(C#N)cc4F)n3)CC2)nc2c(OC(F)F)cc(C(=O)O)cc21 [Compound 149, 2-((4-((6-((4-Cyano-2-fluorophenoxy)methyl)pyridin-2-yl)oxy)piperidin-1-yl)methyl)-4-(difluoromethoxy)-1-methyl-1H-benzo[d]imidazole-6-carboxylic acid]	10 to 100	> 85	
COc1c(F)c(C(=O)O)cc2nc(CN3CCC(c4cccc(OCc5ccc(Cl)cc5F)n4)CC3)n(C)c12 [Compound 338, 2-((4-(6-((4-Chloro-2-fluorobenzyl)oxy)pyridin-2-yl)piperidin-1-yl)methyl)-6-fluoro-7-methoxy-1-methyl-1H-benzo[d]imidazole-5-carboxylic acid]	> 1000	50 to 85	
CCOc1cc(C(=O)O)cc2c1nc(CN1CCC(c3cccc4c3OC[C@H](c3ccc(Cl)cc3F)O4)CC1)n2C [Compound 270, (S)-2-((4-(2-(4-Chloro-2-fluorophenyl)-2,3-dihydrobenzo[b][1,4]dioxin-5-yl)piperidin-1-yl)methyl)-4-ethoxy-1-methyl-1H-benzo[d]imidazole-6-carboxylic acid]	10 to 100	> 85	
Cn1c(CN2CCC(c3cccc(OCc4ccc(Cl)cc4F)n3)CC2)nc2c(OC(F)F)nc(C(=O)O)cc21 [Compound 253, 2-((4-(6-((4-Chloro-2-fluorobenzyl)oxy)pyridin-2-yl)piperidin-1-yl)methyl)-4-(difluoromethoxy)-1-methyl-1H-imidazo[4,5-c]pyridine-6-carboxylic acid]	10 to 100		
CC(CO)Oc1cc(C(=O)O)cc2c1nc(CN1CCC(c3cccc(OCc4ccc(Cl)cc4F)n3)CC1)n2C (stereo not drawn) [Compound 320, 2-((4-(6-((4-Chloro-2-fluorobenzyl)oxy)pyridin-2-yl)piperidin-1-yl)methyl)-4-((1-hydroxypropan-2-yl)oxy)-1-methyl-1H-benzo[d]imidazole-6-carboxylic acid]	10 to 100	> 85	
Cn1c(CN2CCC(c3nc(OCc4ccc(Cl)cc4F)ncc3F)CC2)nc2c(OC(F)F)cc(C(=O)O)cc21 [Compound 375, 2-((4-(2-((4-Chloro-2-fluorobenzyl)oxy)-5-fluoropyrimidin-4-yl)piperidin-1-yl)methyl)-4-(difluoromethoxy)-1-methyl-1H-benzo[d]imidazole-6-carboxylic acid]	100 to 1000	> 85	
Cn1c(CN2CCC(c3cccc(OCc4ccc(Cl)cc4F)n3)CC2)nc2c(OC(F)F)cc(-c3nsc(=O)[nH]3)cc21 [Compound 370, 3-(2-((4-(6-((4-Chloro-2-fluorobenzyl)oxy)pyridin-2-yl)piperidin-1-yl)methyl)-4-(difluoromethoxy)-1-methyl-1H-benzo[d]imidazol-6-yl)-1,2,4-thiadiazol-5 (4H)-one]	100 to 1000	> 85	
Cn1c(CN2CCC(c3cc(OCc4ccc(Cl)cc4F)ccc3F)CC2)nc2c(OC(F)F)cc(C(=O)O)cc21 [Compound 167, 2-((4-(5-((4-Chloro-2-fluorobenzyl)oxy)-2-fluorophenyl)piperidin-1-yl)methyl)-4-(difluoromethoxy)-1-methyl-1H-benzo[d]imidazole-6-carboxylic acid]	> 1000	25 to 50	
Cn1c(CN2CCC(n3nccc3OCc3ccc(Cl)cc3F)CC2)nc2c(OC(F)F)cc(C(=O)O)cc21 [Compound 200, 2-((4-(5-((4-Chloro-2-fluorobenzyl)oxy)-1H-pyrazol-1-yl)piperidin-1-yl)methyl)-4-(difluoromethoxy)-1-methyl-1H-benzo[d]imidazole-6-carboxylic acid]	> 1000	> 85	

Results, then the compound that gave them:

EC50 [nM]	Emax [1] [%]	GLP-1R Low Expression Cell Assay Emax (%) [1]	SMILES
< 10	> 85		[2H]C([2H])([2H])Oc1cc(C(=O)O)cc2c1nc(CN1CCC(c3cccc4c3O[C@@](C)(c3ccc(Cl)cn3)O4)CC1)n2C[C@@H]1CCO1 [Compound 98, 2-((4-((S)-2-(5-chloropyridin-2-yl)-2-methylbenzo[d][1,3]dioxol-4-yl)piperidin-1-yl)methyl)-4-(methoxy-d3)-1-(((S)-oxetan-2-yl)methyl)-1H-benzo[d]imidazole-6-carboxylic acid]
10 to 100	> 85		Cn1c(CN2CCN(c3cccc(OCc4ccc(Cl)cc4F)n3)CC2)nc2c(OC(F)F)cc(C(=O)O)cc21 [Compound 150, 2-((4-(6-((4-Chloro-2-fluorobenzyl)oxy)pyridin-2-yl)piperazin-1-yl)methyl)-4-(difluoromethoxy)-1-methyl-1H-benzo[d]imidazole-6-carboxylic acid]
< 10	> 85		COc1cc(Cl)ccc1COc1cccc(C2CCN(Cc3nc4c(OC)cc(C(=O)O)cc4n3C)CC2)n1 [Compound 348, 2-((4-(6-((4-Chloro-2-methoxybenzyl)oxy)pyridin-2-yl)piperidin-1-yl)methyl)-4-methoxy-1-methyl-1H-benzo[d]imidazole-6-carboxylic acid]
10 to 100	> 85		Cn1c(CN2CCC(c3cccc(OCc4ccc(C(F)(F)F)cc4F)n3)CC2)nc2c(OC(F)F)cc(C(=O)O)cc21 [Compound 223]
< 10	> 85		Cn1c(CN2CCC(c3cccc4c3OC(c3ccc(Cl)cc3F)C=C4)CC2)nc2c(OC(F)F)cc(C(=O)O)cc21 (single isomer, unassigned) [Compound 175]
10 to 100	> 85		O=C(O)c1cc(OC(F)F)c2nc(CN3CCC(c4cccc(OCc5ccc(Cl)cc5F)n4)CC3)n(C3CC3)c2c1 [Compound 199, 2-((4-(6-((4-Chloro-2-fluorobenzyl)oxy)pyridin-2-yl)piperidin-1-yl)methyl)-1-cyclopropyl-4-(difluoromethoxy)-1H-benzo[d]imidazole-6-carboxylic acid]
10 to 100	> 85		Cn1c(CN2CC=C(c3ccc(F)c(OCc4ccc(Cl)cc4F)c3)CC2)nc2c(OC(F)F)cc(C(=O)O)cc21 [Compound 152, 2-((4-(3-((4-Chloro-2-fluorobenzyl)oxy)-4-fluorophenyl)-3,6-dihydropyridin-1(2H)-yl)methyl)-4-(difluoromethoxy)-1-methyl-1H-benzo[d]imidazole-6-carboxylic acid]
< 10	> 85		Cn1c(CN2CCC(c3cccc(OCc4ccc(Cl)cc4F)n3)CC2)nc2c(OCC(F)F)cc(C(=O)O)cc21 [Compound 169, 2-((4-(6-((4-Chloro-2-fluorobenzyl)oxy)pyridin-2-yl)piperidin-1-yl)methyl)-4-(2,2-difluoroethoxy)-1-methyl-1H-benzo[d]imidazole-6-carboxylic acid]
< 10	> 85		Cn1c(CN2CCC(c3cccc(OCc4cc(F)c(C#N)cc4F)n3)CC2)nc2c(OC(F)F)cc(C(=O)O)cc21 [Compound 366, 2-((4-(6-((4-Cyano-2,5-difluorobenzyl)oxy)pyridin-2-yl)piperidin-1-yl)methyl)-4-(difluoromethoxy)-1-methyl-1H-benzo[d]imidazole-6-carboxylic acid]
< 10		++++ (Emax is >85%)	CC(CF)Oc1cc(C(=O)O)cc2c1nc(CN1CCC(c3cccc(OCc4ccc(Cl)cc4F)n3)CC1)n2C (single isomer, unassigned) [Compound 263]
< 10	> 85		N#Cc1ccc(COc2cccc(C3CCN(Cc4nc5c(O)c(C(=O)O)ccc5n4C[C@@H]4CCO4)CC3)n2)c(F)c1 [Compound 376, (S)-2-((4-(6-((4-Cyano-2-fluorobenzyl)oxy)pyridin-2-yl)piperidin-1-yl)methyl)-4-hydroxy-1-(oxetan-2-ylmethyl)-1H-benzo[d]imidazole-5-carboxylic acid]

Source: patent US20240368120A1 (Terns Pharmaceuticals, Inc., priority 2023, published 2024)
